Columns and labels:
PKCε = target: T1, PKCε (Homo sapiens, UniProt Q02156); experiment: PKC assay with purified PKCε; assay type: biochemical
T1 construct: purchased Calbiochem
T1 sequence (Q02156 1-737): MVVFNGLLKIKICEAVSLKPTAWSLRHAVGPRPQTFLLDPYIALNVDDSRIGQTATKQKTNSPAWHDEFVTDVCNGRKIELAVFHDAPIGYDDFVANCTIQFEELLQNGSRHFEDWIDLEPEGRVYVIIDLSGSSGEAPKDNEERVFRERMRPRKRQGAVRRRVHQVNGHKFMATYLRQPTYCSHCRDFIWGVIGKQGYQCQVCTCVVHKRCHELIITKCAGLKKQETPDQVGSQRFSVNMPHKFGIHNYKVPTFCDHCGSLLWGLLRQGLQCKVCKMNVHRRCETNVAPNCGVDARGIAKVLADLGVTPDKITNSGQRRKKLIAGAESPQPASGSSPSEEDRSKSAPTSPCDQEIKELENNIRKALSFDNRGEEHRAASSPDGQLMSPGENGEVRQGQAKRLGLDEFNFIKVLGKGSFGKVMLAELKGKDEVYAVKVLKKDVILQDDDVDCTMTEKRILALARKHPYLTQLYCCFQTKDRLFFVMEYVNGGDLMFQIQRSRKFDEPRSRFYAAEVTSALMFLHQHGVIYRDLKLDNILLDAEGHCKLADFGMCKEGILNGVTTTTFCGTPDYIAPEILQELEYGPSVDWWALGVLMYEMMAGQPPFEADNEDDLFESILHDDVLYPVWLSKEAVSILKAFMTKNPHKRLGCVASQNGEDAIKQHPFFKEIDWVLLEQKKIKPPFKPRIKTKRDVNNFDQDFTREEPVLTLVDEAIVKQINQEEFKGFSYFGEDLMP
Description: PKC assay. Recombinant PKC (1 ng of PKCα or PKCε isoform) was mixed with BR-101 (DCP-LA) in the presence of 10 micromolar histones, 5 mM CaCl2, 1.2 μg/μl phosphatidyl-L-serine, 0.18 μg/μl 1,2-dioctanoyl-sn-glycerol (DAG), 10 mM MgCl2, 20 mM HEPES (pH 7.4), 0.8 mM EDTA, 4 mM EGTA, 4% glycerol, 8 μg/ml aprotinin, 8 μg/ml leupeptin, and 2 mM benzamidine. 0.5 micro Ci[^γ32P]ATP was added. The incubation mixture was incubated for 15 min at 37 degrees in a total volume of 10 microliters. The reaction was stopped by spotting the reaction mixtures on 1×2 cm strips of cellulose phosphate paper (Whatman P81) and immediately washing twice for 1 hr in 0.5% H3PO4. The cellulose phosphate strips were counted in a scintillation counter. In some experiments, phosphatidylserine, diacylglycerol, and/or calcium were removed.
DHA methyl ester was purchased from Cayman Chemical (Ann Arbor, Me.). PKC isozymes were from Calbiochem (San Diego, Calif.). Purified PKCε was purchased from Calbiochem.
Protein kinase C assay. Rat hippocampal cells were cultured and scraped in 0.2 ml homogenization buffer (20 mM Tris-HCl, pH 7.4, 50 mM NaF, 1 μg/ml leupeptin, and 0.1 mM PMSF) and homogenized by sonication a Marsonix microprobe sonicator (5 sec, 10 W). To measure PKC, 10 μl of cell homogenate or purified PKC isozyme (purchased from Calbiochem) was incubated for 15 min at 37° C. in the presence of 10 μM histones, 4.89 mM CaCl2, 1.2 μg/μl phosphatidyl-L-serine, 0.18 μg/μl 1,2-dioctanoyl-sn-glycerol, 10 mM MgCl2, 20 mM HEPES (pH 7.4), 0.8 mM EDTA, 4 mM EGTA, 4% glycerol, 8 μg/ml aprotinin, 8 μg/ml leupeptin, and 2 mM benzamidine. […][^γ32P]ATP was added and ^32P-phosphoprotein formation was measured by adsorption onto phosphocellulose as described previously. Nelson and Alkon, J. Neurochemistry (1995), vol. 65, pp. 2350-2357. For measurements of activation by BR-101 (DCP-LA) and similar compounds. PKC activity was measured in the absence of diacylglycerol and phosphatidylserine and PKC δ, ε, η, and μ were measured in the absence of added EGTA and CaCl2, as described by Kanno et al. (J. Lipid Res. 2006, vol. 47, pp. 1146-1150). Low concentrations of Ca^2+ are used because high Ca^2+ interacts with the PKC phosphatidylserine binding site and prevents activation. For measurements of bryostatin activation, 1,2-diacylglycerol was omitted unless otherwise stated.
To determine their PKC isozyme specificity, fatty acid derivatives were preincubated with purified PKC for five minutes and the PKC activity was measured radiometrically.

[1] = test system: global cerebral ischemia/hypoxia in rats; experiment: Global ischemia model, water maze (Examples 10-11); assay type: in vivo, rat
Description: Rats (male, Wistar, 200-225 g) were randomly divided into 6 groups (8 each) and housed for 1 week before experimentation. […] The global ischemia model used to induce vascular memory impairment was two-vessel occlusion combined with a short term systemic hypoxia. Ligation of the bilateral common carotid arteries was performed under anesthesia (pentobarbital, 60 mg/kg, i.p.). After a one-week recovery from the surgery, rats were exposed to 14-min hypoxia (5% oxygen in a glass jar). Control rats (sham operated and vehicle controls) were subjected to the same incision to isolate both common carotid arteries and to 14-min air (in the glass jar). Body temperature was kept at 37-37.5° C. using a heating light source during the surgical procedure and until the animals were fully recovered.

[2] = test system: global cerebral ischemia/hypoxia in rats; experiment: Global cerebral ischemia/hypoxia, spatial learning and memory (Example 12); assay type: in vivo, rat
Description: Global cerebral ischemialhypoxia was induced in male Wistar rats (225-250 g) by permanently occluding the bilateral common carotid arteries, combined with about 14 minutes of low oxygen (about 5%). […] Spatial learning (2 trials/day for 4 days) and memory (a probe test of 1 minute, 24 hours after the last trial) task was performed 9 days after the last dose. Overall, there was a significant difference between the groups (F3,255=31.856, p<0.001) and groups x trials (F21,255=1.648, p<0.05). Global cerebral ischemia impaired the spatial learning (ischemial vs. sham-operated F1,127=[…]).

## CCC1CC1CC1CC1CC1CC1CC1CC1CC1CC1CC1CC1CCC(=O)OC (stereo not shown) [BR-111, methyl-3-(2-((2-((2-((2-((2-((2-ethylcyclopropyl)methyl)cyclopropyl)methyl)cyclopropyl)methyl)-cyclopropyl)methyl)cyclopropyl)methyl)cyclopropyl)propanoate]
PKCε
  concentration needed to activate PKC relative to BR-101 (DCP-LA): approximately 100 times lower
PKCε; FIG. 7, methyl esters
  activation of purified PKCε (in words): activated purified PKCε to a similar extent

## CCC/C=C/C=C/C(=O)O[C@H]1/C(=C/C(=O)OC)C[C@H]2C[C@H]([C@@H](C)O)OC(=O)C[C@H](O)C[C@@H]3C[C@H](OC(C)=O)C(C)(C)[C@](O)(C[C@@H]4C/C(=C/C(=O)OC)C[C@H](/C=C/C(C)(C)[C@]1(O)O2)O4)O3 [Bryostatin-1, bryostatin-1]
[1]; bryostatin-1 20 μg/m^2 i.v. 2 doses/week, 10 doses, MCDA 1.0 mg/kg i.p. daily 5 weeks, start 24 hours after hypoxia
  water maze spatial learning, ischemic treated vs ischemic rats: greatly improved the performance
[1]; non-ischemic rats, same regimens
  water maze spatial learning, drug-only vs control rats: no differences
[1]; same regimens
  water maze spatial learning, ischemic treated vs control rats: did not differ statistically
[2]; 15 μg/m^2, ischemic rats
  memory retention (target quadrant preference) after ischemia: effectively restored memory retention
[2]; 15 μg/m^2, non-ischemic rats
  spatial learning, Bryostatin-1 alone vs sham-operated: did not affect the learning
  target quadrant preference, Bryostatin-1 alone vs sham-operated: no significant effects
[2]; 15 μg/m^2 tail vein, 2 doses/week, 10 doses, start about 24 hours after event, tested 9 days after last dose
  spatial learning impairment after ischemia: restored

## CCCCCC1CC1CC1CC1CCCCCCCC(=O)O (stereo not shown) [BR-101, 2-[(2-pentylcyclopropyl)methyl]cyclopropaneoctanoic acid]
PKCε; at 10 μM
  activation of PKCε (in words): effective activator

Reference: patent US9889183B2, “PKC activators and anticoagulant in regimen for treating stroke” (BLANCHETTE ROCKEFELLER NEUROSCIENCES INSTITUTE, priority 2010, dated 2018)
